Data: the supplement of paper PMC11281043
± gives the standard deviation of the averaged measurements.

What was measured:
Conditions in all cases: exposure: 6-8 hpf to 5 dpf, scored at 6 dpf
[1] = test system: Danio rerio embryo/larva; assay: max % larvae dead across tested concentrations; max tested concentration (log10 uM): 2; higher = more toxic; extreme values may be limits of the assay
[2] = test system: Danio rerio embryo/larva; assay: max % larvae with any abnormality across tested concentrations; max tested concentration (log10 uM): 2; higher = more toxic; extreme values may be limits of the assay
[3] = test system: Danio rerio embryo/larva; assay: max % larvae unhatched across tested concentrations; max tested concentration (log10 uM): 2; higher = more toxic

| SMILES | max % larvae dead across tested concentrations [1] | max % larvae [2] | max % larvae unhatched across tested concentrations [3] |
| --- | --- | --- | --- |
| NCC(F)(F)C(F)(F)C(F)(F)C(F)(F)C(F)(F)C(F)(F)C(F)(F)F [1H,1H-Perfluorooctylamine] | 8.33 ± 12% | 33.3 ± 47% | 0% |
| C=C(C)C(=O)OCCC(F)(F)C(F)(F)C(F)(F)C(F)(F)C(F)(F)C(F)(F)F [2-(Perfluorohexyl)ethyl methacrylate] | 0% | 0% | 0% |
| C=CC(=O)OCCC(F)(F)C(F)(F)C(F)(F)C(F)(F)C(F)(F)C(F)(F)C(F)(F)C(F)(F)F [2-(Perfluorooctyl)ethyl acrylate] | 0% | 0% | 0% |
| C=C(C)C(=O)OCCC(F)(F)C(F)(F)C(F)(F)C(F)(F)C(F)(F)C(F)(F)C(F)(F)C(F)(F)F [2-(Perfluorooctyl)ethyl methacrylate] | 0% | 0% | 0% |
| O=C(O)C=C(C(F)(F)F)C(F)(F)F [3,3-Bis(trifluoromethyl)-2-propenoic acid] | 0% | 2.08% | 0% |
| O=C(O)C=CC(F)(C(F)(F)F)C(F)(F)F [3-(Perfluoroisopropyl)-2-propenoic acid] | 0% | 16.7% | 0% |
| OCCCC(F)(F)C(F)(F)C(F)(F)C(F)(F)C(F)(F)C(F)(F)C(F)(F)C(F)(F)F [3-(Perfluorooctyl)propanol] | 0% | 0% | 0% |
| OCC(F)(F)C(F)(F)C(F)(F)F [3:1 Fluorotelomer alcohol] | 0% | 8.33% | 0% |
| O=C(O)CCC(F)(C(F)(F)F)C(F)(F)F [4,4-bis(Trifluoromethyl)-4-fluoropropanoic acid] | 16.7% | 16.7% | 0% |
| OCCC(F)(F)C(F)(F)C(F)(F)C(F)(F)F [4:2 Fluorotelomer alcohol] | 0% | 4.17% | 0% |
| O=S(=O)(O)CCC(F)(F)C(F)(F)C(F)(F)C(F)(F)F [4:2 Fluorotelomer sulfonic acid] | 0% | 0% | 0% |
| O=C(O)C(F)(F)C(F)(F)C(F)F [4H-Perfluorobutanoic acid] | 0% | 0% | 0% |
| O=P(O)(O)OCCC(F)(F)C(F)(F)C(F)(F)C(F)(F)C(F)(F)C(F)(F)F [6:2 Fluorotelomer phosphate monoester] | 0% | 0% | 0% |
| O=S(=O)(O)CCC(F)(F)C(F)(F)C(F)(F)C(F)(F)C(F)(F)C(F)(F)F [6:2 Fluorotelomer sulfonic acid] | 16.7% | 16.7% | 0% |
| O=S(=O)(O)CCC(F)(F)C(F)(F)C(F)(F)C(F)(F)C(F)(F)C(F)(F)C(F)(F)C(F)(F)F [8:2 Fluorotelomer sulfonic acid] | 0% | 0% | 0% |
| O=C(O)C(F)(F)C(F)(F)C(F)(F)C(F)(F)C(F)(F)C(F)(F)C(F)F [8H-Perfluorooctanoic acid] | 0% | 16.7% | 0% |
| O=C(O)C(F)(F)C(F)(F)C(F)(F)C(F)(F)C(F)(F)C(F)(F)C(F)(F)C(F)F [9H-Perfluorononanoic acid] | 0% | 18.8% | 0% |
| C=C(C)C(=O)OCCC(F)(F)C(F)(F)C(F)(F)C(F)(F)C(F)(C(F)(F)F)C(F)(F)F [(Perfluoro-5-methylhexyl)ethyl 2-methylprop-2-enoate] | 0% | 0% | 0% |
| C=C(C)C(=O)OCC(F)(F)C(F)(F)C(F)(F)F [(Perfluoropropyl)methyl methacrylate] | 0% | 8.33% | 0% |

| SMILES | max % larvae dead across tested concentrations [1] | max % larvae [2] | max % larvae unhatched across tested concentrations [3] |
| --- | --- | --- | --- |
| FC(F)(F)C(F)(F)CNCC(F)(F)C(F)(F)F [Bis(1H,1H-perfluoropropyl)amine] | 0% | 16.7% | 0% |
| CCOC(=O)CC(=O)C(F)(F)C(F)(F)F [Ethyl pentafluoropropionyl acetate] | 0% | 0% | 0% |
| FC(F)(F)C(F)(F)C(F)(F)CI [Heptafluorobutyl iodide] | 0% | 0% | 0% |
| NC(=O)C(F)(F)C(F)(F)C(F)(F)F [Heptafluorobutyramide] | 16.7% | 25% | 0% |
| OCC(F)(F)C(F)(F)C(F)(F)CO [Hexafluoroamylene glycol] | 0% | 0% | 0% |
| O=C(Cl)C(F)(F)C(F)(F)C(F)(F)C(=O)Cl [Hexafluoroglutaryl chloride] | 0% | 0% | 0% |
| COC(=O)C(F)(F)C(F)(F)C(F)(F)C(F)(F)C(F)(F)F [Methyl perfluorohexanoate] | 0% | 0% | 0% |
| CCN(CCO)S(=O)(=O)C(F)(F)C(F)(F)C(F)(F)C(F)(F)C(F)(F)C(F)(F)C(F)(F)C(F)(F)F [N-Ethyl-N-(2-hydroxyethyl)perfluorooctane sulfonamide] | 0% | 12.5% | 0% |
| CN(C(=O)C(F)(F)C(F)(F)C(F)(F)F)[Si](C)(C)C [N-Methyl-N-trimethylsilylheptafluorobutyramide] | 0% | 0% | 0% |
| NC(=O)C(F)(F)C(F)(F)C(F)(F)C(F)(F)F [Nonafluoropentanamide] | 0% | 0% | 0% |
| NC(=O)C(F)(F)C(F)(F)C(F)(F)C(F)(F)C(N)=O [Octafluoroadipamide] | 0% | 0% | 0% |
| O=C(Cl)C(F)(F)C(F)(F)C(F)(F)C(F)(F)C(F)(F)C(F)(F)C(F)(F)F [Pentadecafluorooctanoyl chloride] | 0% | 16.7% | 0% |
| NC(=O)C(F)(F)C(F)(F)F [Pentafluoropropionamide] | 0% | 0% | 0% |
| O=C(O)C(F)(F)C(F)(F)C(F)(F)OC(F)(F)F [Perfluoro(4-methoxybutanoic acid)] | 0% | 0% | 0% |
| FC(F)(F)C(F)(F)C(F)(F)C(F)(F)C(F)(F)C(F)(F)I [Perfluoro-1-iodohexane] | 0% | 0% | 0% |
| O=S(=O)(O)C(F)(F)C(F)(F)OC(F)(F)C(F)(F)F [Perfluoro-2-ethoxyethanesulfonic acid] | 0% | 16.7% | 0% |
| O=C(O)C(F)(F)OC(F)(F)C(F)(F)OC(F)(F)C(F)(F)OC(F)(F)F [Perfluoro-3,6,9-trioxadecanoic acid] | 16.7% | 100% | 0% |
| O=C(O)C(F)(F)OC(F)(F)C(F)(F)OC(F)(F)F [Perfluoro-3,6-dioxaheptanoic acid] | 0% | 4.17% | 0% |
